{
  "source": "ChEMBL document CHEMBL1145191",
  "about": "“NMR studies reveal structural differences between the gallium and yttrium complexes of DOTA-D-Phe1-Tyr3-octreotide” (J Med Chem, 2005)",
  "experiment": "Half-life time of the compound",
  "type": "ADME",
  "data": [
    {"substance": "GaIII-DOTATOC", "values": [
      {"measurement": "T1/2", "result": 1.13, "unit": "h"}
    ]}
  ]
}
